What is called IC50 is the concentration that inhibits the measured activity by half. The term pKD denotes −log10 of the KD, conventionally taken in molar units.

Experimental findings from paper PMC7747594, “Protease-activated receptor-2 ligands reveal orthosteric and allosteric mechanisms of receptor inhibition” (Communications Biology, 2020) are described below.

The target in one assay is T1, PAR1 (F2R) (Homo sapiens, UniProt P25116).
T1 sequence (P25116 22-425): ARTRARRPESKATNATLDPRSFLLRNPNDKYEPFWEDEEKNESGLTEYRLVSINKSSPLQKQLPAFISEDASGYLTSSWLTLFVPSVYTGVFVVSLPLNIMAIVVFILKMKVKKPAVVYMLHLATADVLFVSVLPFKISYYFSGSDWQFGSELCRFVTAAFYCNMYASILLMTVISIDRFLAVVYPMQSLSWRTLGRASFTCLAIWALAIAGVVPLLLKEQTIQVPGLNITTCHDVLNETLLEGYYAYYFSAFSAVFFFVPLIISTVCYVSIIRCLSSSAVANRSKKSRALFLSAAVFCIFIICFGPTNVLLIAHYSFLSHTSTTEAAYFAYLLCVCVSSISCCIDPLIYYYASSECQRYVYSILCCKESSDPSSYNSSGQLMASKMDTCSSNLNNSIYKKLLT
Kind of assay: β-arrestin recruitment, DiscoverX profiling service, PAR1. The class given is cell-based. Background: Activated receptors often draw arrestin, which recruitment assays turn into a signal.

For assay [1], the system named is PAR2 stabilised receptor (StaR). Kind of assay: Surface plasmon resonance (SPR) binding, single-cycle kinetics. As for the experimental part: (§1) The SPR binding experiments were performed on a Biacore S200 optical biosensor unit (GE Healthcare) at 30 °C. Sensor chips Series S NTA (Research grade, GE Healthcare) were equilibrated at room temperature prior to use. The running buffer for protein tethering and subsequent ligand binding experiments was 50 mM HEPES, 250 mM NaCl, 0.1% (w/v) LMNG, 0.005% (w/v) CHS, 0.025% (w/v) CHAPS, pH 7.4, if not stated otherwise. The tethering of PAR2 was performed at a flow rate of 5 µl min^−1. The NTA surface was chosen to allow full control of the steric orientation of the tethered protein and was conditioned by a one-minute injection of a 350 mM EDTA solution (pH 8.3) followed by a one-minute injection of running buffer supplemented with 0.5 mM NiCl2. To allow for a covalent tethering after the initial capture step, the conditioned surface was activated for 7 min with 50 mM NHS and 200 mM EDC. This was immediately followed by an injection of PAR2 in running buffer at a concentration of 80–120 µg ml^−1 with a contact time of 5–10 min to achieve the desired densities of 8000–9000 RU. […] Reference surfaces were prepared accordingly, omitting the injection of protein over the activated reference surface. The subsequent binding experiments were all performed at a flow rate of 30 µl min^−1 and by employing the method of single-cycle kinetics. This approach involves the sequential injection of a compound concentration series without regeneration steps. A contact time of 60 s was selected, which was followed by a 30 min dissociation phase to allow for a proper estimation of the dissociation rate constant. Compounds were dissolved in DMSO to 10 mM and a digital dispenser HP D300 (Tecan) was used to set up the compound concentration series using 8 concentrations with a 2-fold dilution pattern. […] Prior to the analysis of compound binding, three running buffer blanks were injected to equilibrate the instrument. The data collection rate was set to 10 Hz and all experiments were repeated at least four times to allow for error estimations. Due to the low DMSO mismatch (maximum 0.1%) introduced by the compound addition, no solvent correction was required. To evaluate compound binding to the PAR-AZ8838 complex, the antagonist AZ8838 was supplemented into the running buffer at a concentration of 50 µM and the instrument was equilibrated for 1 h before performing the single-cycle kinetic study as described above. Similarly, binding of AZ2429 to the PAR-AZ3451 complex was investigated after addition of 1 µM AZ3451 to the running buffer followed by 1 h equilibrium period, while the addition of 10 µM AZ2429 to the running buffer was required to ensure >99% saturation for single-cycle kinetic study of AZ3451 binding to the PAR2-AZ2429 complex.
(§2) Prior to the fitting of the data, the reference-subtracted data was further analysed by subtracting a similar single-cycle kinetic experiment containing only buffer injections in order to correct for injection artefacts, systematic noise and instrument drift. This double-referenced data has been fitted using a simple 1:1 interaction model as described by Karlsson et al.[46] in order to extract kinetic and affinity data. All data were expressed as mean ± s.e.m. and further analysed using GraphPad Prism 8. Statistical differences were assessed using student’s t-tests (two-tailed) for data sets of two and one-way ANOVA for data sets of three. Significance was set at ^+p < 0.05, ^++p < 0.01, ^+++p < 0.001, ^++++p < 0.0001 compared to AZ3451, and *p < 0.05, **p < 0.01, ***p < 0.001, ****p < 0.0001 compared to AZ2429.
On the technique in general: Surface plasmon resonance follows binding to a sensor surface in real time, without labels.

The target of another assay is T2, hPAR2 (Homo sapiens, UniProt P55085).
T2 sequence (P55085 26-397): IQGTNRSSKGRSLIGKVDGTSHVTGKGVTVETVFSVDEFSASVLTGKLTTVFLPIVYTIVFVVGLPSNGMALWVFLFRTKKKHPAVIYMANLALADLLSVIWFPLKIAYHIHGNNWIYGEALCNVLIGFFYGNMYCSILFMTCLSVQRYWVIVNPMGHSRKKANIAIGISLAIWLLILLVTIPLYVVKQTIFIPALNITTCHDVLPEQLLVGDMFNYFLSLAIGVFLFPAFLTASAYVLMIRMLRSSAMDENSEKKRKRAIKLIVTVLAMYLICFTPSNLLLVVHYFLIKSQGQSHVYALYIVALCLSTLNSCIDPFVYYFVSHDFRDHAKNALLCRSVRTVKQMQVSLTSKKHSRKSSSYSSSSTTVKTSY
The assay can be described thus: IP1 assay, agonist mode, 1321N1-hPAR2 cells. In kind it is cell-based.

Assay [2] addresses T3, PAR2 stabilised receptor (StaR) (Homo sapiens, UniProt P55085).
T3 sequence (P55085 55-377): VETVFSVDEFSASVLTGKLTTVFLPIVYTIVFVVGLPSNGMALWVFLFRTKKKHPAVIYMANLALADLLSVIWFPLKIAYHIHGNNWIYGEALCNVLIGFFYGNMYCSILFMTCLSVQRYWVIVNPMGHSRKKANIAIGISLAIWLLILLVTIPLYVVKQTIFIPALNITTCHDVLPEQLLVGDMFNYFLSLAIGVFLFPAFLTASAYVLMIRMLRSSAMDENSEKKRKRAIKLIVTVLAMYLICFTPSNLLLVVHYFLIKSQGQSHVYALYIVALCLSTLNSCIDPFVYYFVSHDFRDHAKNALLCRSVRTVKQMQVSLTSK
The assay can be described thus: Surface plasmon resonance (SPR) binding, single-cycle kinetics. As for the experimental part: as §1, §2

In turn, `CNC(=O)[C@H]1CC[C@@H](NC(=O)[C@H](CC2CCCCC2)NC(=O)c2cn(Cc3ccccc3)nn2)c2ccccc21` [AZ2429] came in with a Max Response at PAR1 (F2R) (Arrestin, Agonist format, F2R) of 0%. The EC50 at PAR1 (F2R) (Arrestin, Agonist format, F2R, read-out: RC50 (EC50)) was greater than 50 µM. The same molecule returned a Max Response at PAR1 (F2R) (Arrestin, Antagonist format, F2R) of 0%. Also, the IC50 on PAR1 (F2R) (Arrestin, Antagonist format, F2R, read-out: RC50 (IC50)) was greater than 50 µM. In addition, the “activity against PAR1 in β-arrestin-2 recruitment assay” value at PAR1 (F2R) (DiscoverX profiling service) is listed as “No AZ2429 activity was detected”. Moreover, in assay [1] (SPR), the “association kinetics slower than AZ3451” value is recorded as “around 100 fold”, the “dissociation rate decreased relative to AZ3451” value was 5 fold and the “weaker affinity than AZ3451” value is given as 10 fold. In assay [1] (apo-PAR2, 30 °C), the ka was 1.5 ± 0.1 × 10^4 (n = 4) M^−1 s^−1, the pKD is on record as 6.89 ± 0.03 (n = 4) and the residence time is recorded as 523 ± 50 (n = 4) s. Also, on hPAR2 (1321N1-hPAR2), the “more potent than SLIGKV-NH2, IP1 accumulation” value turned out to be 120 fold. The EC50 at hPAR2 (1321N1-hPAR2 cells, mean ± s.e.m., read-out: IP1 pEC50 (converted)) is 0.2 µM.
For the molecule `C[C@@H](C1CCCCC1)n1c(-c2cc3c(cc2Br)OCO3)nc2cc(C(=O)Nc3ccc(C#N)cc3)ccc21` [AZ3451], the “reduction in affinity in presence of saturating AZ8838” value in assay [2] (SPR) is reported as 3 fold. Also, in assay [2] (SPR, apo-PAR2), the residence time result is on record as “about 2 min”. In assay [2] (apo-PAR2, 30 °C), the ka was 1.1 ± 0.6 × 10^6 (n = 4) M^−1 s^−1, the pKD is listed as 7.96 ± 0.04 (n = 4) and the residence time is reported as 116 ± 68 (n = 4) s.
